Consider 21 molecules from the SangsterLogP compilation.

SMILES strings stand for the structures.

This data set in a line: method code SF-AS, from PMID: 2985094. The settings on record: pH 7.4.
As to `CCSCCn1cnc2[nH]c(=O)n(C)c(=N)c21`, the logD (usually lipophilicity at a set pH, counting ionised and neutral species) was -0.13.
In the case of `Cn1c(=O)[nH]c2ncn(CCc3ccc(Br)cc3)c2c1=N` it was 1.25; in that of `Cn1c(=O)[nH]c2c(ncn2CCCC(=O)c2ccc(F)cc2)c1=N`, 0.44.
Take `CCOCCn1cnc2[nH]c(=O)n(C)c(=N)c21`: the logD was -1.1.
In the case of `COCCn1cnc2c(N)n(C)c(=O)nc21` it was -0.96; in that of `CC(=O)OCCn1cnc2[nH]c(=O)n(C)c(=N)c21`, -1.2.
The figure for `COCCn1cnc2nc(=O)n(C)c(N)c21` is -1.49.
In the case of `COCn1cnc2[nH]c(=O)n(C)c(=N)c21` it was -2.41; in that of `CCOC(=O)CCn1cnc2c(=N)n(C)c(=O)[nH]c21`, -0.45.
In the case of `CCSCCn1cnc2c(=N)n(C)c(=O)[nH]c21`, the log distribution coefficient (logD) worked out at 0.
The figure for `Cn1c(=O)[nH]c2ncn(CCCC(=O)c3ccc(F)cc3)c2c1=N` is -1.04; for `Cn1c(N)c2ncn(Cc3ccccc3)c2nc1=O` it is 0.65; for `Cn1c(N)c2c(ncn2Cc2ccccc2)nc1=O` it is 0.07.
As for `C=CCn1cnc2c(=N)n(C)c(=O)[nH]c21`, the logD is -0.57.
The figure for `C=COCCn1cnc2c(=N)n(C)c(=O)[nH]c21` is -0.24; for `COCn1cnc2nc(=O)n(C)c(N)c21` it is -2.41; for `Cn1c(=O)[nH]c2ncn(C)c2c1=N` it is -2.27.
Regarding `C=COCCn1cnc2[nH]c(=O)n(C)c(=N)c21`, the logD is -0.78.
In the case of `COCn1cnc2c(=N)n(C)c(=O)[nH]c21` it was -1.22.
Consider `CCOCCn1cnc2c(N)n(C)c(=O)nc21`, for which the logD is -0.4.
The molecule `COCCOCn1cnc2c(=N)n(C)c(=O)[nH]c21` yielded a logD of -1.52.
